Assay results reported in patent publication US12565520B2, “Chemically-stabilized allosteric modulators of leucine-rich repeat kinase 2 (LRRK2)” (UNIVERSITY OF GEORGIA RESEARCH FOUNDATION, INC., priority 2020, dated 2026).
“Also recorded” adds a separate entry of the source.

How the values were obtained:
[1] = test system: primary cortical neurons overexpressing G2019S-LRRK2; experiment: Neuronal apoptosis in primary cortical neurons expressing G2019S-LRRK2; format: cell-based, mouse; conditions: 10 μM peptide, 48 h
Excerpt: Preparation of primary mouse neuronal cultures, and assessment of neuronal death. Embryonic day 16 (E16) pregnant C57BL mice were used in this study, with primary cortical neurons prepared as described (N. Antoniou et al., A motif within the armadillo repeat of Parkinson's-linked LRRK2 interacts with FADD to hijack the extrinsic death pathway. Sci Rep 8, 3455 (2018)). Briefly, under aseptic conditions, cortices were removed and cut into small pieces before enzymatic digestion (trypsin 0.05% and 100 μg/ml DNAse) and mechanical dissociation. Cells were centrifuged and counted and plated at a density of 150,000/cm^2 in BrainPhys neuronal culture medium (StemCell Technologies) supplemented with SM1 Neuronal Supplement (StemCell Technologies), L-glutamine (0.5 mM) and penicillin/[…]. After 3-4 DIV, neurons were transfected using Lipofectamine 2000 (Thermo Scientific) as per the manufacturer's instructions. Neurons were transfected with Flag-tagged WT or mutant (G2019S) human LRRK2 (as described previously). The following day, the treatment of neurons with fluorescently labeled peptides (at 10 μM final concentration) was initiated. The peptides were replenished in the neuronal medium after 24 hours, and the indicated concentrations. […] For quantification of apoptotic neuronal profiles, the approach described previously was used.

[2] = test system: endogenous LRRK2 kinase activity as Rab10 phosphorylation; experiment: Rab10 phosphorylation in untransfected A549 cells; format: cell-based; conditions: 10 μM
Excerpt: To test whether disruption of LRRK2 dimerization can also attenuate Rab phosphorylation, a hyperactive LRRK2 mutant (R1441G) and Rab29 were overexpressed in HEK293T cells (Z. Liu et al., LRRK2 phosphorylates membrane-bound Rabs and is activated by GTP-bound Rab7L1 to promote recruitment to the trans-Golgi network. Hum Mol Genet 27, 385-395 (2018); and E. Purlyte et al., Rab29 activation of the Parkinson's disease-associated LRRK2 kinase. The EMBO Journal 37, 1-18 (2018)). Overexpression of Rab29 induces recruitment of LRRK2 to the trans-golgi network (TGN) and activates it there. After 24-hour transfection, cells were then treated with 10 μM peptide for 15 hours. […] To test the effect of the dimerization inhibitors on endogenous LRRK2 function, we performed a similar experiment using non-transfected A549 cells which natively express detectable levels of both LRRK2 and Rab10.

| Substance | neurons undergoing apoptosis [1] | Rab10 phosphorylation by endogenous LRRK2 [2] |
| --- | --- | --- |
| COR-domain stapled peptide formed from SEQ ID NO. 16 KGEGEXLLKXWK, X = (S)-2-(4′-pentenyl)alanine; PEG3 linker, FAM or biotin label (hydrocarbon staple; PEG3 linker; FAM or biotin; COR domain peptide; (6)..(6) Xaa is (S)-2-(4′-pentenyl)alanine; (10)..(10) Xaa is (S)-2-(4′-pentenyl)alanine) [LCIP1] | sharp decline in neurons undergoing apoptosis | – |
| Roc-domain stapled peptide formed from SEQ ID NO. 6 DEKQRKAC(Nle)SKITKEXLNKX, X = (S)-2-(4′-pentenyl)alanine; PEG3 linker, FAM or biotin label (DEKQRKACXSKITKEXLNKX; hydrocarbon staple; Nle; PEG3 linker; FAM or biotin; ROC domain petide; (9)..(9) Xaa is norleucine; (16)..(16) Xaa is (S)-2-(4′-pentenyl)alanine; (20)..(20) Xaa is (S)-2-(4′-pentenyl)alanine) [LRIP4] | sharp decline in neurons undergoing apoptosis, especially for LRIP4 treated cells | significant reduction in phosphorylation of Rab10; also recorded: inhibition of Rab10 phosphorylation |
